Data taken from patent publication US10988465B2, “CXCR4 inhibitors and uses thereof” (X4 Pharmaceuticals, Inc., priority 2016, dated 2021).

Assays:
[1] = molecular target: T1, CXCR-4 transfected U87 cell line (U87.CXCR4) (Homo sapiens, UniProt P61073); assay: Intracellular CXCL-12-induced calcium mobilization assay (FLIPR); assay type: cell-based; conditions: U87.CXCR4 cells; CXCL-12 25-50 ng/mL; compound added 15 min before; read-out: IC50 CXCL-12 Ca^2+ flux U87.CXCR4+
T1 construct: expressed in transfected cells; host or cells: U87 (U87.CXCR4)
T1 sequence (P61073 whole entry): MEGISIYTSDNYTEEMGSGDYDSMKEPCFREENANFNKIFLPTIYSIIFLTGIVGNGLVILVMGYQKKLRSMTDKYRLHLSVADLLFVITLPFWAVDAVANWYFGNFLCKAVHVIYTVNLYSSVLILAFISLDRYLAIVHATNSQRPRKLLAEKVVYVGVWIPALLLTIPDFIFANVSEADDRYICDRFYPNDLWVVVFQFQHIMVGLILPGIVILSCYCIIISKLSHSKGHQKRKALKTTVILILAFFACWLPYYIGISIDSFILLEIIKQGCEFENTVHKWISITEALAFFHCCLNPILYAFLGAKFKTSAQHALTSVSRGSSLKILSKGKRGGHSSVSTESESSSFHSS
How it was run: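 CXCL-12 (25-50 ng/mL) was the stimulus, and the intracellular calcium rise was tracked kinetically by FLIPR at 37 °C. Cells were U87.CXCR4 transfectants pre-loaded 45 min at 37 °C with 4 μM (final) Fluo-2 AM in HEPES-buffered HBSS with 0.2% BSA, pH 7.4.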

[2] = molecular target: T2, Jurkat cells expressing CXCR4 (Homo sapiens, UniProt P61073); assay: Chemokine (CXCL12-AF647) binding inhibition assay; conditions: CXCL12-AF647 25 ng/mL, read-out: IC50 CXCL-12 binding Jurkat
T2 construct: endogenous in cells; host or cells: Jurkat
T2 sequence (P61073 whole entry): as above
How it was run: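 Cells in HBSS, 20 mM HEPES, 0.2% BSA, pH 7.4, preincubated 15 min at room temperature with compound, then 25 ng/mL CXCL12-AF647 for 30 min. After washing and paraformaldehyde fixation, bound ligand read by flow cytometry; percent inhibition calculated from MFI relative to unlabeled and ligand-only controls.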

in vitro = conditions: human, Caco-2, pH 7.4
How it was run: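 Bidirectional permeability across Caco-2 monolayers in HBSS (pH 7.4) at a test concentration of 10 μM, incubated 0 and 90 min at 37° C (n=2). Monolayer integrity was assessed by TEER and Lucifer yellow. Papp was derived from LC-MS/MS-measured concentrations.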

[3] = Mouse brain uptake assay (MBUA), 3 mg/kg IV, 0-24 h, 4 time points; assay type: in vivo, male CD1 mice; conditions: for Kp / clearance / half-life / AUC(0-t) / Kp uu: male; for Kp: CD1, mouse, brain/plasma, iv, 3 mg/kg; for clearance / half-life: CD1, plasma, 4 time points; for clearance / half-life / AUC(0-t) / Kp uu / fraction unbound: mouse; for clearance / half-life / AUC(0-t) / Kp uu: 3 mg/kg IV, 0-24 h; for half-life: read-out: t½ (converted); for AUC(0-t) / Kp uu: CD1; for Kp uu: unbound brain/unbound plasma
Method: (§1) Example 38: Pharmacokinetics and Brain Penetration Experiment to Determine Brain and Plasma Concentrations of Compounds after IV Administration to Male CD1 Mice
(§2) The study design (9 animals) consisted of administrating the drug (IV: 3 mg/kg (5 mL/kg) via tail vein injection) and collecting samples at terminal bleeding for plasma and brain at 0.083, 0.5 and 1 h. The IV dosing solution was prepared in 50 mM citrate buffer (pH 4.0) at 0.6 mg/mL. The blood collection was performed as follows: the animal was restrained manually and approximately 150 μL blood/time point was collected into a dipotassium EDTA tube via retro orbital puncture under anesthesia with isoflurane. The blood sample was put on ice and centrifuged to obtain a plasma sample (2000 g, 5 min under 4° C.) within 15 minutes. The brain collection was performed as follows: a mid-line incision was made in the animal's scalp and the skin was retracted. Using small bone cutters and rongeurs, the skull overlying the brain was removed. The brain was removed using a spatula and the brain rinsed with cold saline. The brain was placed in screw-top tubes, and the tubes were stored at −70° C. until analysis.
(§3) An aliquot of 30 μL sample was added to 150 μL MeCN containing 50 ng/mL IS (Dexamethasone). The mixture was vortexed for 5 min and centrifuged at 14,000 rpm for 5 min. An aliquot of 5 μL supernatant was injected for LC-MS/MS analysis.
(§4) An aliquot of 30 μL brain homogenate (brain:PBS=1:3, w/v) sample was added to 150 μL IS in MeCN (Dexamethasone, 50 ng/mL). The mixture was vortexed for 5 min and centrifuged at 14,000 rpm for 5 min. An aliquot of 5 μL supernatant was injected for LC-MS/MS analysis.
(§5) The sample analysis was performed on LCMS/MS-003 (API4000, triple quadruple) under the following conditions: positive ion, ESI, MRM detection using dexamethasone as internal standard. HPLC conditions: mobile phase A: H2O (0.025% formic acid (FA) with 1 mM NH4OAc); mobile phase B: MeOH (0.025% FA with 1 mM NH4OAc) on Waters X-Bridge C18 (2.1×50 mm, 2.5 μm) column at 60° C.
A similar experiment was performed with 4 time points taken from 0-24 h.

[4] = Mouse brain uptake assay (MBUA), 3 mg/kg IV, 0-1 h, 3 time points; assay type: in vivo, male CD1 mice; conditions: for Kp / clearance / half-life / AUC(0-t) / Kp uu: male; for Kp: CD1, mouse, brain/plasma, iv, 3 mg/kg; for clearance / half-life: CD1, plasma, 3 time points; for clearance / half-life / AUC(0-t) / Kp uu / fraction unbound: mouse; for clearance / half-life / AUC(0-t) / Kp uu: 3 mg/kg IV, 0-1 h; for half-life: read-out: t½ (converted); for AUC(0-t) / Kp uu: CD1; for Kp uu: unbound brain/unbound plasma
Method: as §1, §2, §3, §4, §5

[5] = fraction unbound to brain proteins, read-out: Fu (b) %
[6] = fraction unbound to plasma proteins, read-out: Fu (p) %

Compound | IC50 [1] [nM] | IC50 [2] [nM] | Papp A→B at 90 min, 10 μM (in vitro) [×10⁻⁶ cm/s] | Papp B→A at 90 min, 10 μM (in vitro) [×10⁻⁶ cm/s] | efflux ratio at 90 min, 10 μM (in vitro) | Kp [3] | clearance [3] [mL/min/kg] | half-life [3] [min] | AUC(0-t) ([3]; brain, read-out: AUClast (b)) [ng·h/mL] | AUC(0-t) ([3]; plasma, read-out: AUClast (P)) [ng·h/mL] | Kp uu [3] | fraction unbound [3, 5] | fraction unbound [3, 6] | also measured
Cc1cccnc1[C@@H]1CCC[C@H](c2nc3cccc(N4CCN(C)C5(CC5)C4)c3[nH]2)N1C [I-108] | 100 to 1000 | 0.01 to 100 | > 30 | 10 to 30 | 0.1 to 10 | 55.8 | 115 | 15.1 | 22800 | 408 |  |  |  | 
COc1cccnc1[C@@H]1CCC[C@H](c2nc3cccc(N4CCN(C)CC4)c3[nH]2)N1 [I-127] | 0.01 to 100 | 0.01 to 100 | 0.1 to 10 | 10 to 30 | 0.1 to 10 |  |  |  |  |  |  |  |  | Kp [4]: 0.31; clearance [4]: 132 mL/min/kg; half-life [4]: 23.2 min; AUC(0-t) ([4]; brain, read-out: AUClast (b)): 99.7 ng·h/mL; AUC(0-t) ([4]; plasma, read-out: AUClast (P)): 313 ng·h/mL; Kp uu ([4]; read-out: Kp, uu): 0.07; fraction unbound [4, 5]: 0.048; fraction unbound [4, 6]: 0.215
Cc1cccnc1[C@@H]1CCC[C@H](c2nc3cccc(N4CC5CCC(C4)N5C)c3[nH]2)N1C [I-56] | 0.01 to 100 | 0.01 to 100 | 10 to 30 | 10 to 30 | 0.1 to 10 | 1.94 | 32.3 | 184 | 3000 | 1540 | 0.35 | 0.013 | 0.073 | 
CN1CCC(n2ccnc2[C@H]2CCC[C@@H](c3ncccc3Cl)N2C)CC1 [I-170] | ≥ 1000 | 0.01 to 100 | 10 to 30 | 10 to 30 | 0.1 to 10 | 7.23 | 56 | 229 | 6410 | 887 |  |  |  | 
Cc1cccnc1[C@@H]1CCC[C@H](c2nc3cccc(N4CCN(C5CC5)CC4)c3[nH]2)N1C [I-76] | 0.01 to 100 | 0.01 to 100 | > 30 | 10 to 30 | 0.1 to 10 | 57.2 | 46.5 | 11.6 | 59800 | 1050 |  |  |  | 
Cc1c(Cl)ccnc1[C@@H]1CCC[C@H](c2nc3cccc(N4CCN(C)CC4)c3[nH]2)N1C [I-82] | 0.01 to 100 | 0.01 to 100 | 10 to 30 | 10 to 30 | 0.1 to 10 | 4.27 | 172 | 16.3 | 1150 | 269 | 0.65 | 0.005 | 0.033 | 
Cc1cccnc1[C@@H]1CCC[C@H](c2nc3ccccc3n2CC2CCN(C(C)C)CC2)N1C [I-23, 1-((1-isopropylpiperidin-4-yl)methyl)-2-((2R,6S)-1-methyl-6-(3-methylpyridin-2-yl)piperidin-2-yl)-1H-benzo[d]imidazole] | 0.01 to 100 | 0.01 to 100 | 0.1 to 10 | 0.1 to 10 | 0.1 to 10 |  |  |  |  |  |  |  |  | Kp [4]: 0.41; clearance [4]: 375 mL/min/kg; half-life [4]: 18.1 min; AUC(0-t) ([4]; brain, read-out: AUClast (b)): 49.7 ng·h/mL; AUC(0-t) ([4]; plasma, read-out: AUClast (P)): 120 ng·h/mL; Kp uu [4]: 0; fraction unbound [4, 5]: 0.002; fraction unbound [4, 6]: 0.189
Cc1cccnc1[C@@H]1CCC[C@H](c2nc3cccc(N4CCN(C(C)C)CC4)c3[nH]2)N1 [I-128] | 0.01 to 100 | 0.01 to 100 | 0.1 to 10 | 10 to 30 | 0.1 to 10 | 2.5 |  |  | 3940 | 1580 | 0.2 | 0.011 | 0.135 | 
Cc1cccnc1[C@@H]1CCC[C@H](c2nc3cccc(N4CCN5CCCC5C4)c3[nH]2)N1C (some centres unmarked) [I-66] | 0.01 to 100 | 0.01 to 100 | 10 to 30 | 10 to 30 | 0.1 to 10 | 44.5 | 212 | 18.6 | 9320 | 209 |  |  |  | 
CO[C@H]1C[C@H](c2nc3cccc(N4CCN(C)CC4)c3[nH]2)N(C)[C@H](c2ncccc2C)C1 [I-103] | 100 to 1000 | 0.01 to 100 | 10 to 30 | 10 to 30 | 0.1 to 10 | 7.3 | 102 | 16.7 | 3280 | 449 |  |  |  | 
Cc1cccnc1[C@@H]1CCC[C@H](c2nc3cccc(N4CCN(C)C5(CC5)C4)c3[nH]2)N1 [I-132] | 0.01 to 100 | 0.01 to 100 | 10 to 30 | 10 to 30 | 0.1 to 10 |  |  |  |  |  |  |  |  | Kp [4]: 1.66; clearance [4]: 19.7 mL/min/kg; half-life [4]: 185 min; AUC(0-t) ([4]; brain, read-out: AUClast (b)): 539 ng·h/mL; AUC(0-t) ([4]; plasma, read-out: AUClast (P)): 323 ng·h/mL; Kp uu ([4]; read-out: Kp, uu): 0.54; fraction unbound [4, 5]: 0.01; fraction unbound [4, 6]: 0.031
Cc1cccnc1[C@@H]1CCC[C@H](c2nc3cccc(N4CCN(C)CC4)c3[nH]2)N1 [I-83] | 0.01 to 100 | 0.01 to 100 | 0.1 to 10 | 10 to 30 | 0.1 to 10 |  |  |  |  |  |  |  |  | Kp [4]: 0.35; clearance [4]: 101 mL/min/kg; half-life [4]: 38.2 min; AUC(0-t) ([4]; brain, read-out: AUClast (b)): 112 ng·h/mL; AUC(0-t) ([4]; plasma, read-out: AUClast (P)): 316 ng·h/mL; Kp uu ([4]; read-out: Kp, uu): 0.04; fraction unbound [4, 5]: 0.018; fraction unbound [4, 6]: 0.163
Cc1cc(F)cnc1[C@@H]1CCC[C@H](c2nc3cccc(N4CCN(C)CC4)c3[nH]2)N1C [I-69] | 0.01 to 100 | 0.01 to 100 | 10 to 30 | 10 to 30 | 0.1 to 10 | 15 | 168 | 16.9 | 4080 | 272 | 1.98 | 0.016 | 0.121 | 
Cc1cccnc1[C@@H]1CCC[C@H](c2nc3cccc(N4C5CCC4CN(C)C5)c3[nH]2)N1 [I-120] | 0.01 to 100 | 0.01 to 100 | 10 to 30 | 10 to 30 | 0.1 to 10 | 1.05 |  |  | 5110 | 4820 | 0.07 | 0.014 | 0.201 | 
COc1ccnc([C@@H]2CCC[C@H](c3nc4cccc(N5CCN(C)CC5)c4[nH]3)N2C)c1C [I-81] | 0.01 to 100 | 0.01 to 100 | 0.1 to 10 | 0.1 to 10 | 0.1 to 10 | 7.96 | 33.3 | 286 | 11700 | 1470 | 1.01 | 0.019 | 0.149 | 
